From article PMC5888952 (Toxicological Sciences, 2018)

What was measured:
[1] = tested on: cryopreserved primary human hepatocytes (PHH) in 2Dsw culture; experiment: Repeated-dose cytotoxicity
[2] = tested on: cryopreserved primary human hepatocytes (PHH) in 3D spheroid culture; experiment: Repeated-dose cytotoxicity; assay type: cell-based
[3] = after long-term exposure, chosen treatment regimen

SMILES: COc1ccccc1Oc1c(NS(=O)(=O)c2ccc(C(C)(C)C)cc2)nc(-c2ncccn2)nc1OCCO [bosentan]
- sensitivity of PHH in 2Dsw compared with 3D spheroids ([1]; after 7 days (3 treatments)): higher
- sensitivity of PHH in 2Dsw compared with 3D spheroids ([1]; at 14 days (6 treatments)): equal sensitivity

SMILES: O=C(O)Cc1ccccc1Nc1c(Cl)cccc1Cl [diclofenac]
- sensitivity of PHH in 2Dsw compared with 3D spheroids [1, 3]: substantially lower sensitivities

SMILES: O=c1[nH]c(=O)n([C@@H]2O[C@H](CO)[C@@H](O)[C@@H]2F)cc1I [fialuridine]
- EC50 (50% reduction in viability, ATP) ([1]; 2Dsw culture, any of the 3 PHH donors, up to 14 days repeated exposure): could not be attained
- sensitivity of PHH in 2Dsw compared with 3D spheroids [1, 3]: substantially lower sensitivities

SMILES: CCc1ccc(CCOc2ccc(CC3SC(=O)NC3=O)cc2)nc1 (stereo not shown) [pioglitazone]
- toxicity (ATP viability) ([2]; 3D spheroid culture, up to 14 days): non-toxic
- toxicity (ATP viability) ([1]; 2Dsw culture, up to 14 days): non-toxic

SMILES: Cc1c(C)c2c(c(C)c1O)CCC(C)(COc1ccc(CC3SC(=O)NC3=O)cc1)O2 (stereo not shown) [troglitazone]
- donors in which toxicity was identified at relevant concentrations ([2]; 3D spheroids, after 72 hours (single treatment), 3 donors tested): all 3 donors
- donors in which toxicity was indicated ([1]; 2Dsw culture, 3 donors tested): 1 of the 3 donors
- sensitivity of PHH in 2Dsw compared with 3D spheroids [1, 3]: substantially lower sensitivities
